Source: PMC9482650, “Quantitative fragmentomics allow affinity mapping of interactomes” (Nature Communications, 2022)
Ends that are not written are not given here. * marks the point of attachment. Biotin = O=C1N[C@H]2[C@H](CS[C@H]2CCCCC(=O)*)N1; ttds = NCCCOCCOCCOCCCNC(=O)CCC(=O)*

Columns and labels:
HaCat cell extract preys = test: PBM-AP-MS, PBM peptide baits; assay type: binding, human
Procedure: (§1) HEK293T and HeLa cells were authenticated and found 100% identity to ATCC cat. CRL-3216 and ATCC cat. CCL-2, respectively. Jurkat and HaCat cell lines were not authenticated (original source: ECACC and Deutsches Krebsforschungszentrum DKFZ, respectively). HeLa cells were grown in DMEM (1 g/L glucose, Gibco) medium completed with 5% FCS and 40 μg/mL gentamicin, diluted every 3rd/4th day 1/10. HaCat cells were grown in DMEM (1 g/L glucose, Gibco) medium completed with 10% FCS and 40 μg/mL gentamicin, diluted every 3rd/4th day 1/4. Jurkat cells were grown in RPMI (Gibco) medium completed with 10% FCS and 40 μg/mL gentamicin, diluted every 3rd/4th day 1/12. All cells were kept at 37 °C and 5% CO2. For proteomics analyses cells were seeded on T-175 flasks. After they reached confluency, adherent cells were washed with PBS once and collected by scraping with ice-cold lysis buffer (Hepes-KOH pH 7.5 50 mM, NaCl 150 mM, Triton X-100 1%, complete EDTA-free protease inhibitor cocktail 1×, EDTA 2 mM, TCEP 5 mM, glycerol 10%). Jurkat cells were collected by 1000 g × centrifugation, washed once with PBS, then collected by 1000 g × 5 min centrifugation again and lysed in ice-cold lysis buffer. Lysates were sonicated 4 × 20 s with 1 s long pulses on ice, then incubated rotating at 4 °C for 30 min. Lysates were centrifuged at 12,000 rpm 4 °C for 20 min and supernatant was kept for further analysis. Concentration determination was carried out by standard Bradford method (Bio-Rad Protein Assay Dye Reagent #5000006) using BSA (MP BIomedicals #160069) as control on a Bio-Rad SmartSpec 3000 spectrophotometer instrument.
(§2) For PBM-AP-MS experiments, 30 μl streptavidin resin was mixed with biotin or peptide at 50–60 μM concentration in 6–6.5 resin volume for 60 min to achieve resin saturation. For PDZ-AP-MS experiments, 30 μl streptavidin resin was mixed with biotinylated MBP or MBP-PDZ at 40-50 μM concentration in >1000× resin volume for 60 min to achieve resin saturation. After saturation, resins were washed a single time (ten resin volume, holdup buffer), and were depleted with biotin (1 mM biotin, 5–10 resin volume, 10 min). Finally, resins were washed two times. 0.5 ml 2 mg/ml cell lysate was added to the dry resin (1 mg total input) and were incubated at 4 °C for 2 h. Then, the beads were washed three times with 10 resin volume buffer containing: 50 mM TRIS pH 8.5, 150 mM NaCl, 1% TritonX-100, 10× complete EDTA-free protease inhibitor cocktail, 2 mM EDTA, 1 mM TCEP. Then, the beads were washed two times with ten resin volume buffer containing: 50 mM TRIS pH 8.5, 150 mM NaCl, 1 mM TCEP. Finally, captured protein was eluted from the resin in two steps and the eluted fractions were pooled. For each elution the beads were incubated for 30 min with three resin volume buffer containing: 20 mM TRIS pH8.5, 100 mM NaCl, 500 μM TCEP, 8 M Urea. Between each step, the beads were separated by mild centrifugation and the supernatant was removed by gentle pipetting.
(§3) The samples were precipitated with TCA 20% overnight at 4 °C and centrifuged at 14,000 rpm for 10 min at 4 °C. The protein pellets were washed twice with 1 mL cold acetone and air dried. The protein extracts were solubilized in urea 8 M, reduced with 5 mM TCEP for 30 min, and alkylated with 10 mM iodoacetamide for 30 min in the dark. Double digestion was performed at 37 °C with 500 ng endoproteinase Lys-C for 4 h, followed by fourfold dilution and an overnight digestion with 500 ng trypsin. Peptide mixtures were then desalted on C18 spin-column and dried on Speed-Vacuum.
(§4) Samples were analyzed using an Ultimate 3000 nano-RSLC (Thermo Scientific, San Jose California) coupled in line with a LTQ-Orbitrap ELITE mass spectrometer via a nano-electrospray ionization source (Thermo Scientific, San Jose California). […]

HeLa cell extract preys = test: PBM-AP-MS, PBM peptide baits; assay type: binding, human
Procedure: as §1, §2, §3, §4

HPV35E6 ({Biotin-ttds}-SKPTRRETEV)
Enrichment values compared to biotin controls (HaCat cell extract preys; prey AHNAK2, PBM peptide bait): 0.845 | Enrichment values compared to biotin controls (HaCat cell extract preys; prey AHNAK, PBM peptide bait): 0.7 | Enrichment values compared to biotin controls (HaCat cell extract preys; prey DLG1, PBM peptide bait): 5.3 | Enrichment values compared to biotin controls (HaCat cell extract preys; prey GORASP2, PBM peptide bait): 0.7 | Enrichment values compared to biotin controls (HaCat cell extract preys; prey InaDl, PBM peptide bait): 0.6 | Enrichment values compared to biotin controls (HaCat cell extract preys; prey LAP2, PBM peptide bait): 0.849 | Enrichment values compared to biotin controls (HaCat cell extract preys; prey LIN7C, PBM peptide bait): 269.9 | Enrichment values compared to biotin controls (HaCat cell extract preys; prey MAGI3, PBM peptide bait): 4.3 | Enrichment values compared to biotin controls (HaCat cell extract preys; prey MPP5, PBM peptide bait): 0.7 | Enrichment values compared to biotin controls (HaCat cell extract preys; prey MPP6, PBM peptide bait): 0.8 | Enrichment values compared to biotin controls (HaCat cell extract preys; prey MPP7, PBM peptide bait): 30.8 | Enrichment values compared to biotin controls (HaCat cell extract preys; prey NHERF2, PBM peptide bait): 0.665 | Enrichment values compared to biotin controls (HaCat cell extract preys; prey NHERF, PBM peptide bait): 0.215 | Enrichment values compared to biotin controls (HaCat cell extract preys; prey PDLIM1, PBM peptide bait): 0.569 | Enrichment values compared to biotin controls (HaCat cell extract preys; prey PDLIM2, PBM peptide bait): 1.6 | Enrichment values compared to biotin controls (HaCat cell extract preys; prey PDLIM4, PBM peptide bait): 1.0 | Enrichment values compared to biotin controls (HaCat cell extract preys; prey PDLIM5, PBM peptide bait): 1.1 | Enrichment values compared to biotin controls (HaCat cell extract preys; prey PDLIM7, PBM peptide bait): 0.422 | Enrichment values compared to biotin controls (HaCat cell extract preys; prey PTPN3, PBM peptide bait): 0.9 | Enrichment values compared to biotin controls (HaCat cell extract preys; prey SCRIB, PBM peptide bait): 3.1 | Enrichment values compared to biotin controls (HaCat cell extract preys; prey SNTB2, PBM peptide bait): 7.5 | Enrichment values compared to biotin controls (HaCat cell extract preys; prey SNX27, PBM peptide bait): 3.3 | Enrichment values compared to biotin controls (HaCat cell extract preys; prey SYNJ2BP, PBM peptide bait): 25.2 | Fold changes HaCat, SYNJ2BP (HaCat cell extract preys; prey SYNJ2BP, PBM peptide bait): 25.2 | Enrichment values compared to biotin controls (HaCat cell extract preys; prey TJP1, PBM peptide bait): 1.3 | Enrichment values compared to biotin controls (HaCat cell extract preys; prey TJP2, PBM peptide bait): 1.8 | Enrichment values compared to biotin controls (HaCat cell extract preys; prey TX1B3, PBM peptide bait): 3.3 | Enrichment values compared to biotin controls (HeLa cell extract preys; prey AHNAK, PBM peptide bait): 0.9 | Enrichment values compared to biotin controls (HeLa cell extract preys; prey ARHGAP21, PBM peptide bait): 1.3 | Enrichment values compared to biotin controls (HeLa cell extract preys; prey ARHGEF12, PBM peptide bait): 1.1 | Enrichment values compared to biotin controls (HeLa cell extract preys; prey CASK, PBM peptide bait): 4.9 | Enrichment values compared to biotin controls (HeLa cell extract preys; prey DLG1, PBM peptide bait): 6.4 | Enrichment values compared to biotin controls (HeLa cell extract preys; prey DLG3, PBM peptide bait): 5.8 | Enrichment values compared to biotin controls (HeLa cell extract preys; prey DLG5, PBM peptide bait): 1.3 | Enrichment values compared to biotin controls (HeLa cell extract preys; prey DVL2, PBM peptide bait): 0.8 | Enrichment values compared to biotin controls (HeLa cell extract preys; prey GOPC, PBM peptide bait): 1.4 | Enrichment values compared to biotin controls (HeLa cell extract preys; prey HTRA1, PBM peptide bait): 2.0 | Enrichment values compared to biotin controls (HeLa cell extract preys; prey InaDl, PBM peptide bait): 1.3 | Enrichment values compared to biotin controls (HeLa cell extract preys; prey LAP2, PBM peptide bait): 1.4 | Enrichment values compared to biotin controls (HeLa cell extract preys; prey LIN7C, PBM peptide bait): 131.1 | Enrichment values compared to biotin controls (HeLa cell extract preys; prey LMO7, PBM peptide bait): 2.0 | Enrichment values compared to biotin controls (HeLa cell extract preys; prey MPDZ, PBM peptide bait): 2.5 | Enrichment values compared to biotin controls (HeLa cell extract preys; prey MPP5, PBM peptide bait): 4.0 | Enrichment values compared to biotin controls (HeLa cell extract preys; prey MPP6, PBM peptide bait): 1.1 | Enrichment values compared to biotin controls (HeLa cell extract preys; prey MPP7, PBM peptide bait): 11.7 | Enrichment values compared to biotin controls (HeLa cell extract preys; prey NHERF2, PBM peptide bait): 0.9 | Enrichment values compared to biotin controls (HeLa cell extract preys; prey NHERF3, PBM peptide bait): 0.9 | Enrichment values compared to biotin controls (HeLa cell extract preys; prey PDLIM5, PBM peptide bait): 0.8 | Enrichment values compared to biotin controls (HeLa cell extract preys; prey PDLIM7, PBM peptide bait): 0.9 | Enrichment values compared to biotin controls (HeLa cell extract preys; prey PSMD9, PBM peptide bait): 0.6 | Enrichment values compared to biotin controls (HeLa cell extract preys; prey SCRIB, PBM peptide bait): 217.5 | Enrichment values compared to biotin controls (HeLa cell extract preys; prey SIPA1L1, PBM peptide bait): 0.5 | Enrichment values compared to biotin controls (HeLa cell extract preys; prey SNTA1, PBM peptide bait): 0.5 | Enrichment values compared to biotin controls (HeLa cell extract preys; prey SNTB1, PBM peptide bait): 8.8 | Enrichment values compared to biotin controls (HeLa cell extract preys; prey SNTB2, PBM peptide bait): 48.7 | Enrichment values compared to biotin controls (HeLa cell extract preys; prey SNX27, PBM peptide bait): 1.4 | Enrichment values compared to biotin controls (HeLa cell extract preys; prey SYNJ2BP, PBM peptide bait): 63.6 | Fold changes HeLa, SYNJ2BP (HeLa cell extract preys; prey SYNJ2BP, PBM peptide bait): 63.6 | Enrichment values compared to biotin controls (HeLa cell extract preys; prey TJP1, PBM peptide bait): 0.9 | Enrichment values compared to biotin controls (HeLa cell extract preys; prey TX1B3, PBM peptide bait): 15.3
